≈ marks a conversion by molar mass, not a printed value.
Experiments:
Format in all cases: cell-based
A. baumannii MP-15 = assay: MIC determination by CLSI broth dilution, A. baumannii MP-15; conditions: Acinetobacter baumannii, MP15, strain MP-15, read-out: MIC A. baumanii MP-15
S. aureus MP-12 = assay: microbe, parasite or virus in culture; conditions: Staphylococcus aureus, MP12, read-out: MIC S. aureus MP-12
E. coli MP-4 = assay: MIC determination by CLSI broth dilution, E. coli MP-4; conditions: Escherichia coli, MP4, CLSI broth dilution; strain MP-4
K. pneumoniae MP-546 = assay: MIC determination by CLSI broth dilution, K. pneumoniae MP-546; conditions: Klebsiella pneumoniae, MP546, CLSI broth dilution; strain MP-546
P. aeruginosa MP-3 = assay: MIC determination by CLSI broth dilution, P. aeruginosa MP-3; conditions: Pseudomonas aeruginosa, MP3, strain MP-3
K. pneumoniae MP-648 = assay: MIC determination by CLSI broth dilution, K. pneumoniae MP-648; conditions: Klebsiella pneumoniae, MP648, CLSI broth dilution; strain MP-648

Structure (SMILES) | MIC (A. baumannii MP-15) [µg/mL] | MIC (S. aureus MP-12) [µg/mL] | MIC (E. coli MP-4) [µg/mL] | MIC (K. pneumoniae MP-546) [µg/mL] | MIC (P. aeruginosa MP-3) [µg/mL] | MIC (K. pneumoniae MP-648) [µg/mL]
CO[C@]1(C)C[C@@H](C)CN(C)[C@@H](CCCN2CCNC(=O)C2)COC(=O)C(C)(C)C(=O)[C@H](C)[C@H]1O[C@@H]1O[C@H](C)C[C@H](N(C)C)[C@H]1O [Compound 115, (3S,6R,8R,9R,10R)-9-(((2S,3R,4S,6R)-4-(dimethylamino)-3-hydroxy-6-methyltetrahydro-2H-pyran-2-yl)oxy)-8-methoxy-4,6,8,10,12,12-hexamethyl-3-(3-(3-oxopiperazin-1-yl)propyl)-1-oxa-4-azacyclotridecane-11,13-dione] | > 32 | > 32 | > 32 | > 32 | > 32 | > 32
CO[C@]1(C)C[C@@H](C)CN(C)[C@@H](CCCN2CCC[C@@H]2C)COC(=O)C(C)(C)C(=O)[C@H](C)[C@H]1O[C@@H]1O[C@H](C)C[C@H](N(C)C)[C@H]1O [Compound 117, (3S,6R,8R,9R,10R)-9-(((2S,3R,4S,6R)-4-(dimethylamino)-3-hydroxy-6-methyltetrahydro-2H-pyran-2-yl)oxy)-8-methoxy-4,6,8,10,12,12-hexamethyl-3-(3-((S)-2-methylpyrrolidin-1-yl)propyl)-1-oxa-4-azacyclotridecane-11,13-dione] | > 32 | < 4 | < 4 | < 4 | > 32 | < 4
CCN1CCC(C[C@@H]2COC(=O)C(C)(C)C(=O)[C@H](C)[C@@H](O[C@@H]3O[C@H](C)C[C@H](N(C)C)[C@H]3O)[C@](C)(OC)C[C@@H](C)CN2CC)CC1 [Compound 118, (3R,6R,8R,9R,10R)-9-(((2S,3R,4S,6R)-4-(dimethylamino)-3-hydroxy-6-methyltetrahydro-2H-pyran-2-yl)oxy)-4-ethyl-3-((1-ethylpiperidin-4-yl)methyl)-8-methoxy-6,8,10,12,12-pentamethyl-1-oxa-4-azacyclotridecane-11,13-dione] | 4 to 32 (≈ 6.25 to 50 µM) | 4 to 32 (≈ 6.25 to 50 µM) | < 4 | < 4 | > 32 | < 4
CO[C@]1(C)C[C@@H](C)CN(C)[C@@H](CCCN2CCc3ccccc3C2)COC(=O)C(C)(C)C(=O)[C@H](C)[C@H]1O[C@@H]1O[C@H](C)C[C@H](N(C)C)[C@H]1O [Compound 120, (3S,6R,8R,9R,10R)-3-(3-(3,4-dihydroisoquinolin-2 (1H)-yl)propyl)-9-(((2S,3R,4S,6R)-4-(dimethylamino)-3-hydroxy-6-methyltetrahydro-2H-pyran-2-yl)oxy)-8-methoxy-4,6,8,10,12,12-hexamethyl-1-oxa-4-azacyclotridecane-11,13-dione] | 4 to 32 (≈ 5.94 to 47.5 µM) | < 4 | < 4 | < 4 | > 32 | < 4
CO[C@]1(C)C[C@@H](C)CN(CC(C)C)[C@@H](CCCN2CCCCC2)COC(=O)C(C)(C)C(=O)[C@H](C)[C@H]1O[C@@H]1O[C@H](C)C[C@H](N(C)C)[C@H]1O [Compound 121, (3S,6R,8R,9R,10R)-9-(((2S,3R,4S,6R)-4-(dimethylamino)-3-hydroxy-6-methyltetrahydro-2H-pyran-2-yl)oxy)-4-isobutyl-8-methoxy-6,8,10,12,12-pentamethyl-3-(3-(piperidin-1-yl)propyl)-1-oxa-4-azacyclotridecane-11,13-dione] | > 32 | 4 to 32 (≈ 5.99 to 47.9 µM) | < 4 | 4 to 32 (≈ 5.99 to 47.9 µM) | > 32 | 4 to 32 (≈ 5.99 to 47.9 µM)
CO[C@]1(C)C[C@@H](C)CN(C)[C@@H](CCCN2CCC[C@H]2C)COC(=O)C(C)(C)C(=O)[C@H](C)[C@H]1O[C@@H]1O[C@H](C)C[C@H](N(C)C)[C@H]1O [Compound 122, (3S,6R,8R,9R,10R)-9-(((2S,3R,4S,6R)-4-(dimethylamino)-3-hydroxy-6-methyltetrahydro-2H-pyran-2-yl)oxy)-8-methoxy-4,6,8,10,12,12-hexamethyl-3-(3-((R)-2-methylpyrrolidin-1-yl)propyl)-1-oxa-4-azacyclotridecane-11,13-dione] | > 32 | 4 to 32 (≈ 6.39 to 51.1 µM) | < 4 | < 4 | > 32 | < 4
CO[C@]1(C)C[C@@H](C)CN(C)[C@@H](CCCN2CCC[C@@H]2C(F)(F)F)COC(=O)C(C)(C)C(=O)[C@H](C)[C@H]1O[C@@H]1O[C@H](C)C[C@H](N(C)C)[C@H]1O [Compound 123, (3S,6R,8R,9R,10R)-9-(((2S,3R,4S,6R)-4-(dimethylamino)-3-hydroxy-6-methyltetrahydro-2H-pyran-2-yl)oxy)-8-methoxy-4,6,8,10,12,12-hexamethyl-3-(3-((R)-2-(trifluoromethyl)pyrrolidin-1-yl)propyl)-1-oxa-4-azacyclotridecane-11,13-dione] | > 32 | > 32 | > 32 | > 32 | > 32 | > 32
CO[C@]1(C)C[C@@H](C)CN(C)[C@@H](CCCN2CC[C@H](F)C2)COC(=O)C(C)(C)C(=O)[C@H](C)[C@H]1O[C@@H]1O[C@H](C)C[C@H](N(C)C)[C@H]1O [Compound 125, (3S,6R,8R,9R,10R)-9-(((2S,3R,4S,6R)-4-(dimethylamino)-3-hydroxy-6-methyltetrahydro-2H-pyran-2-yl)oxy)-3-(3-((S)-3-fluoropyrrolidin-1-yl)propyl)-8-methoxy-4,6,8,10,12,12-hexamethyl-1-oxa-4-azacyclotridecane-11,13-dione] | > 32 | 4 to 32 (≈ 6.35 to 50.8 µM) | < 4 | < 4 | > 32 | 4 to 32 (≈ 6.35 to 50.8 µM)
CCCN1C[C@H](C)C[C@@](C)(OC)[C@H](O[C@@H]2O[C@H](C)C[C@H](N(C)C)[C@H]2O)[C@@H](C)C(=O)C(C)(C)C(=O)OC[C@@H]1CCCN1Cc2ccccc2C1 [Compound 126, (3S,6R,8R,9R,10R)-9-(((2S,3R,4S,6R)-4-(dimethylamino)-3-hydroxy-6-methyltetrahydro-2H-pyran-2-yl)oxy)-3-(3-(isoindolin-2-yl)propyl)-8-methoxy-6,8,10,12,12-pentamethyl-4-propyl-1-oxa-4-azacyclotridecane-11,13-dione] | 4 to 32 (≈ 5.81 to 46.5 µM) | < 4 | < 4 | < 4 | > 32 | < 4
CCCN1C[C@H](C)C[C@@](C)(OC)[C@H](O[C@@H]2O[C@H](C)C[C@H](N(C)C)[C@H]2O)[C@@H](C)C(=O)C(C)(C)C(=O)OC[C@@H]1CCCN1CCCC1 [Compound 127, (3S,6R,8R,9R,10R)-9-(((2S,3R,4S,6R)-4-(dimethylamino)-3-hydroxy-6-methyltetrahydro-2H-pyran-2-yl)oxy)-8-methoxy-6,8,10,12,12-pentamethyl-4-propyl-3-(3-(pyrrolidin-1-yl)propyl)-1-oxa-4-azacyclotridecane-11,13-dione] | > 32 | 4 to 32 (≈ 6.25 to 50 µM) | < 4 | < 4 | > 32 | < 4
CO[C@]1(C)C[C@@H](C)CN(C)[C@@H](CCCN2CCC(C)(C)CC2)COC(=O)C(C)(C)C(=O)[C@H](C)[C@H]1O[C@@H]1O[C@H](C)C[C@H](N(C)C)[C@H]1O [Compound 128, (3S,6R,8R,9R,10R)-9-(((2S,3R,4S,6R)-4-(dimethylamino)-3-hydroxy-6-methyltetrahydro-2H-pyran-2-yl)oxy)-3-(3-(4,4-dimethylpiperidin-1-yl)propyl)-8-methoxy-4,6,8,10,12,12-hexamethyl-1-oxa-4-azacyclotridecane-11,13-dione] | > 32 | 4 to 32 (≈ 6.12 to 48.9 µM) | < 4 | < 4 | > 32 | < 4
CCN1C[C@H](C)C[C@@](C)(OC)[C@H](O[C@@H]2O[C@H](C)C[C@H](N(C)C)[C@H]2O)[C@@H](C)C(=O)C(C)(C)C(=O)OC[C@@H]1CCCN1CCCCC1 [Compound 129, (3S,6R,8R,9R,10R)-9-(((2S,3R,4S,6R)-4-(dimethylamino)-3-hydroxy-6-methyltetrahydro-2H-pyran-2-yl)oxy)-4-ethyl-8-methoxy-6,8,10,12,12-pentamethyl-3-(3-(piperidin-1-yl)propyl)-1-oxa-4-azacyclotridecane-11,13-dione] | > 32 | 4 to 32 (≈ 6.25 to 50 µM) | < 4 | < 4 | > 32 | < 4
CO[C@]1(C)C[C@@H](C)CN(C)[C@H](C[C@H]2C[C@H](N(C)CC3CC3)C2)COC(=O)C(C)(C)C(=O)[C@H](C)[C@H]1O[C@@H]1O[C@H](C)C[C@H](N(C)C)[C@H]1O [Compound 138, (3R,6R,8R,9R,10R)-3-(((1r,3S)-3-((cyclopropylmethyl)(methyl)amino)cyclobutyl)methyl)-9-(((2S,3R,4S,6R)-4-(dimethylamino)-3-hydroxy-6-methyltetrahydro-2H-pyran-2-yl)oxy)-8-methoxy-4,6,8,10,12,12-hexamethyl-1-oxa-4-azacyclotridecane-11,13-dione] | > 32 | < 4 | < 4 | < 4 | > 32 | < 4
CCN1C[C@H](C)C[C@@](C)(OC)[C@H](O[C@@H]2O[C@H](C)C[C@H](N(C)C)[C@H]2O)[C@@H](C)C(=O)C(C)(C)C(=O)OC[C@H]1CCCN1CCCCC1 [Compound 140, (3R,6R,8R,9R,10R)-9-(((2S,3R,4S,6R)-4-(dimethylamino)-3-hydroxy-6-methyltetrahydro-2H-pyran-2-yl)oxy)-4-ethyl-8-methoxy-6,8,10,12,12-pentamethyl-3-(3-(piperidin-1-yl)propyl)-1-oxa-4-azacyclotridecane-11,13-dione] | > 32 | 4 to 32 (≈ 6.25 to 50 µM) | < 4 | < 4 | > 32 | < 4

Reference: patent US12552825B2 (Zikani Therapeutics, Inc., priority 2019, dated 2026)
